Data: US6197811A, “Cytokine production inhibitors” (Terragen Discovery Inc., priority 1998, dated 2001)

tested on: IL-1β production in human peripheral blood mononuclear cells (PBMC); experiment: LPS-induced IL-1β release from human peripheral blood mononuclear cells (PBMC), ELISA; assay type: cell-based; details: 1 ng/ml LPS, 18 hours at 37° C., IL-1β by ELISA
Procedure: IL-1 Release from Human Peripheral Blood Mononuclear Cells (PBMC)
Human peripheral blood mononuclear cells (PBMC) were separated from Buffy coats obtained from normal healthy donors on Lymphoprep. […] Cells were incubated for 18 hours at 37° C. with 5% CO2 and the cell culture supernatants harvested and stored at -70° C. Effects on the production of IL-1β were determined by using an ELISA.

Point of comparison: `C/C=C/[C@H]1OC(=O)C=C[C@@H]1NCc1ccc(-c2ccccc2)cc1` [Example 2b, (5S,6R)-5-(4-biphenylmethylamino)-6E-prop-1-ene-5,6-dihydro-2H-pyran-2-one], IC50 6900 nM. Against it:
- C/C=C/[C@@H]1OC(=O)C=C[C@H]1OC(=O)c1ccccc1 [Example 1, ((2S,3R)-3,6-Dihydro-6-oxo-(2E-prop-1-enyl-2H-pyran-3-yl)) benzoate] — 2.9-fold lower, 2400 nM
- C/C=C/[C@@H]1OC(=O)C=C[C@H]1OC(=O)c1ccc(-c2ccccc2)cc1 [Example 1a, ((2S,3R)-3,6-Dihydro-6-oxo-(2E-prop-1-enyl-2H-pyran-3-yl))-4-biphenyl carboxylate] — higher, > 7500 nM
- C/C=C/[C@@H]1OC(=O)C=C[C@H]1OC(=O)c1ccc2c(c1)C(=O)c1ccccc1-2 [Example 1b, ((2S,3R)-3,6-Dihydro-6-oxo-(2E-prop-1-enyl-2H-pyran-3-yl))-9-oxo-9H-fluorene carboxylate] — 1.5-fold lower, 4500 nM
- C/C=C/[C@@H]1OC(=O)C=C[C@H]1OC(=O)c1cccc2c1C(=O)c1ccccc1-2 [Example 1c] — 1.7-fold lower, 4000 nM
- C/C=C/[C@H]1OC(=O)C=C[C@@H]1NCc1ccccc1 [Example 2a, (5S,6R)-5-benzylamino-6E-prop-1-ene-5,6-dihydro-2H-pyran-2-one] — 1.7-fold higher, 12000 nM
- C/C=C/[C@H]1OC(=O)C=C[C@@H]1NCC1c2ccccc2-c2ccccc21 [Example 2c, (5S,6R)-5-(2-9H-fluorenemethylamino)-6E-prop-1-ene-5,6-dihydro-2H-pyran-2-one] — 1.9-fold lower, 3600 nM
- C/C=C/[C@@H]1OC(=O)C=C[C@H]1NC(=O)c1ccccc1 [Example 3, ((2S,3R)-3,6-Dihydro-6-oxo-(2E-prop-1-enyl-2H-pyran-3-yl)) phenylamide] — within 1.5-fold, 9700 nM
- C/C=C/[C@@H]1OC(=O)C=C[C@H]1NC(=O)c1ccc(-c2ccccc2)cc1 [Example 3a, ((2S,3R) -3,6-Dihydro-6-oxo-(2E-prop-1-enyl-2H-pyran-3-yl) )4-biphenylamide] — 6.9-fold lower, 1000 nM
- C/C=C/[C@@H]1OC(=O)C=C[C@H]1NC(=O)c1cccc2c1-c1ccccc1C2=O [Example 3b, ((2S,3R)-3,6-Dihydro-6-oxo-(2E-prop-1-enyl-2H-pyran-3-yl))-9-oxo-9H-fluorene-4-amide] — within 1.5-fold, 10000 nM
- C/C=C/[C@@H]1OC(=O)C=C[C@H]1NC(=O)c1ccc(-c2ccccc2)cc1 [Example 3c, ((2S,3R)-3,6-Dihydro-6-oxo-(2E-prop-1-enyl-2H-pyran-3-yl))-4-biphenylamide] — 5.3-fold lower, 1300 nM
- C/C=C/[C@@H]1OC(=O)C=C[C@H]1NC(=O)c1cccc2c1-c1ccccc1C2=O [Example 3d, ((2S,3R)-3,6-Dihydro-6-oxo-(2E-prop-1-enyl-2H-pyran-3-yl))-9-oxo-9H-fluorene-4-amide] — 1.6-fold higher, 11300 nM
- C/C=C/[C@@H]1OC(=O)C=C[C@H]1OC(=O)/C=C/C(C)=C/[C@@H](C)CCCCCC [Example 4, ((2S,3R)-3,6-Dihydro-6-oxo-(2E-prop-1-enyl-2H-pyran-3-yl))-(2E,4E)-4,6-dimethyldodecanoate] — 1.7-fold lower, 4000 nM
- C/C=C/[C@@H]1OC(=O)C=C[C@@H]1OCOCCOC [Example 4a, (2S,3S)-5-(2-Methoxy-ethoxymethoxy)-6-(2E-prop-1-enyl)-5,6-dihydro-2H-pyran-2-one] — within 1.5-fold, 8500 nM
- C/C=C/[C@@H]1OC(=O)C=C[C@@H]1OCc1ccc(-c2ccccc2)cc1 [Example 4b, (2S,3S)-5-(4-Biphenylmethoxy)-6-(2E-prop-1-enyl)-5,6-dihydro-2H-pyran-2-one] — 17-fold lower, 400 nM
- C/C=C/[C@@H]1OC(=O)C=C[C@@H]1OCc1ccccc1 [Example 4c, (2S,3S)-5-Benzyloxy-6-(2E-prop-1-enyl)-5,6-dihydro-2H-pyran-2-one] — 5.8-fold lower, 1200 nM
- C/C=C/[C@@H]1OC(=O)C=C[C@@H]1OC(=O)/C=C/CCCCCCCCC [Example 5, ((2S,3S)-3,6-Dihydro-6-oxo-(2E-prop-1-enyl-2H-pyran-3-yl))dodeca-2E-enoate] — 2.5-fold lower, 2800 nM
- C/C=C/[C@@H]1OC(=O)C=C[C@@H]1OC(=O)/C=C/c1ccco1 [Example 5a, ((2S,3S)-3,6-dihydro-6-oxo-(2E-prop-1-enyl-2H-yran-3-yl))-3-(2-furfuryl)acrylate] — 5.8-fold lower, 1200 nM
- C/C=C/[C@@H]1OC(=O)C=C[C@@H]1OC(=O)c1ccc(-c2ccccc2)cc1 [Example 5b, ((2S,3S)-3,6-Dihydro-6-oxo-(2E-prop-1-enyl-2H-pyran-3-yl))-4-biphenylcarboxylate] — 23-fold lower, 300 nM
- C/C=C/[C@@H]1OC(=O)C=C[C@@H]1OC(=O)c1ccc(-c2ccc(CC)cc2)cc1 [Example 5c, ((2S,3S)-3,6-Dihydro-6-oxo-(2E-prop-1-enyl-2H-pyran-3-yl))-4'-ethyl-4-biphenylcarboxylate] — 69-fold lower, 100 nM
- C/C=C/[C@@H]1OC(=O)C=C[C@@H]1OC(=O)c1cccc2c1Cc1ccccc1-2 [Example 5d, ((2S,3S)-3,6-Dihydro-6-oxo-(2E-prop-1-enyl-2H-pyran-3-yl))-9H-fluorenecarboxylate] — 23-fold lower, 300 nM
- C/C=C/[C@@H]1OC(=O)C=C[C@@H]1OC(=O)c1cccc2c1C(=O)c1ccccc1-2 [Example 5e, ((2S,3S)-3,6-Dihydro-6-oxo-(2E-prop-1-enyl-2H-pyran-3-yl))-9-oxo-9H-fluorene carboxylate] — 53-fold lower, 130 nM
- C/C=C/[C@@H]1OC(=O)C=C[C@@H]1OC(=O)c1ccc2c(c1)C(=O)c1ccccc1-2 [Example 5f, ((2S,3S)-3,6-Dihydro-6-oxo-(2E-prop-1-enyl-2H-pyran-3-yl))-9-oxo-9H-fluorene-2-carboxylate] — 5.8-fold lower, 1200 nM
- C/C=C/[C@@H]1OC(=O)C=C[C@@H]1OC(=O)Cc1ccc(-c2ccccc2)cc1 [Example 5g, ((2S,3S)-3,6-Dihydro-6-oxo-(2E-prop-1-enyl-2H-pyran-3-yl))-4-biphenylacetate] — 1.9-fold higher, 13400 nM
- C/C=C/[C@@H]1OC(=O)C=C[C@@H]1OC(=O)Cc1ccccc1 [Example 5h, ((2S,3S)-3,6-Dihydro-6-oxo-(2E-prop-1-enyl-2H-pyran-3-yl))phenylacetate] — 4.9-fold lower, 1400 nM
- C/C=C/[C@@H]1OC(=O)C=C[C@@H]1OC(=O)/C=C/c1cccc(C)c1 [Example 5i, ((2S,3S)-3,6-Dihydro-6-oxo-(2E-prop-1-enyl-2H-pyran-3-yl))-3m-tolylacrylate] — 6.9-fold lower, 1000 nM
- C/C=C/[C@@H]1OC(=O)C=C[C@@H]1OC(=O)/C=C/c1ccc2ccccc2c1 [Example 5j, ((2S,3S)-3,6-Dihydro-6-oxo-(2E-prop-1-enyl-2H-pyran-3-yl))-3-(2-naphthyl)acrylate] — 9.9-fold lower, 700 nM
- C/C=C/[C@@H]1OC(=O)C=C[C@@H]1OC(=O)c1ccc(CCCCC)cc1 [Example 5k, ((2S,3S)-3,6-Dihydro-6-oxo-(2E-prop-1-enyl-2H-pyran-3-yl))-4-pentylbenzoate] — 17-fold lower, 400 nM
- C/C=C/[C@@H]1OC(=O)C=C[C@@H]1OC(=O)CCCCCCCCCCC [Example 5l, ((2S,3S)-3,6-Dihydro-6-oxo-(2E-prop-1-enyl-2H-pyran-3-yl))dodecanoate] — within 1.5-fold, 8400 nM
- C/C=C/[C@@H]1OC(=O)C=C[C@@H]1OC(=O)CCCCCCCCCCCCC [Example 5m, ((2S,3S)-3,6-Dihydro-6-oxo-(2E-prop-1-enyl-2H-20 pyran-3-yl))tetradodecanoate] — within 1.5-fold, 5400 nM
- CCCCCC[C@H](C)/C=C(C)/C=C/C(=O)O[C@H]1C=CC(=O)O[C@H]1/C=C/C(=O)OCC [Example 6, ((2S,3S)-3,6-Dihydro-6-oxo-(2E-3-oxo-3-ethoxyprop-1-enyl-2H-pyran-3-yl))-(2E,4E)-4,6-dimethyldodecadienoate] — within 1.5-fold, 6000 nM
- CCCCCC[C@H](C)/C=C(C)/C=C/C(=O)O[C@H]1C=CC(=O)O[C@H]1/C=C/C(=O)OCCC [Example 6a, ((2S,3S)-3,6-Dihydro-6-oxo-(2E-3-oxo-3-propoxyprop-1-enyl)-2H-pyran-3-yl)-(2E,4E)-4,6-dimethyldodecadienoate] — 4.9-fold lower, 1400 nM
- CCCCCC[C@H](C)/C=C(C)/C=C/C(=O)O[C@H]1C=CC(=O)O[C@H]1/C=C/C(=O)OCCCC [Example 6b, ((2S,3S)-3,6-Dihydro-6-oxo-(2E-3-oxo-3-butoxyprop-1-enyl)-2H-pyran-3-yl)-(2E,4E)-4,6-dimethyldodecadienoate] — 4.9-fold lower, 1400 nM
- CCCCCC[C@H](C)/C=C(C)/C=C/C(=O)O[C@H]1C=CC(=O)O[C@H]1/C=C/C(=O)NCc1ccccc1 [Example 6c, ((2S,3S)-3,6-Dihydro-6-oxo-(2E-3-oxo-3-benzylaminoprop-1-enyl)-2H-pyran-3-yl)-(2E,4E)-4,6-dimethyldodecadienoate] — higher, > 9000 nM
